Reference: ChEMBL document CHEMBL5465560, “Selectivity Literature for EUbOPEN Chemogenomic Library” (2024)
Blank lines part the entries; values can stand above or below the compound they belong to.

How the values were obtained:
[1] = molecular target: T1, Tyrosine-protein kinase SYK (Homo sapiens, UniProt P43405); assay: Selectivity interaction (KinomeScan (DiscoverX)) EUB0000607a SYK; details: at 10 µM
[2] = molecular target: Calcium/calmodulin-dependent protein kinase type II subunit beta (Homo sapiens) (UniProt Q13554); assay: Selectivity interaction (ActivX KiNativ screen (kinase selectivity in THP-1 cell lysates)) EUB0000639a CAMK2B; format: subcellular; details: lysate, at 1 µM
Sequence of Calcium/calmodulin-dependent protein kinase type II subunit beta (Homo sapiens) (Q13554 whole entry): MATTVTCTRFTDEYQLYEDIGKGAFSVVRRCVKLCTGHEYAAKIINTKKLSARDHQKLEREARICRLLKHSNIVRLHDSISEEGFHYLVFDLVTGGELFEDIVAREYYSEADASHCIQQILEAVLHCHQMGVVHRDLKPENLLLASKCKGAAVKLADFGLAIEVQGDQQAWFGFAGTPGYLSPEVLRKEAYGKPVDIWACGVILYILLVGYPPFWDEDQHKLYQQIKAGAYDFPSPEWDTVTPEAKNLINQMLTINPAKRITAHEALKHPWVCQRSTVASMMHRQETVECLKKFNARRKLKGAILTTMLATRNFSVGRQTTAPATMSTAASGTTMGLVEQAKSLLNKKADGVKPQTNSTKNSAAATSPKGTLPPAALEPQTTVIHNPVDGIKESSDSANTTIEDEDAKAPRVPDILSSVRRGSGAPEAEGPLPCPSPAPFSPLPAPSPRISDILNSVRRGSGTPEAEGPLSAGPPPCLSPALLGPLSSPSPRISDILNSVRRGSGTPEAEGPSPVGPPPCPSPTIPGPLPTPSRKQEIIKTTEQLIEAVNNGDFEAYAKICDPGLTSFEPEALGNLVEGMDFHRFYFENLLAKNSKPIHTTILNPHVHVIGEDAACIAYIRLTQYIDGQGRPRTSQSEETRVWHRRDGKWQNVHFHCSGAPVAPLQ

[3] = molecular target: Tyrosine-protein kinase ABL2 (Homo sapiens, UniProt P42684); assay: Selectivity interaction (ActivX KiNativ screen (kinase selectivity in THP-1 cell lysates)) EUB0000639a ABL2; format: subcellular; details: lysate, at 0.04 µM
Sequence of Tyrosine-protein kinase ABL2 (P42684 whole entry): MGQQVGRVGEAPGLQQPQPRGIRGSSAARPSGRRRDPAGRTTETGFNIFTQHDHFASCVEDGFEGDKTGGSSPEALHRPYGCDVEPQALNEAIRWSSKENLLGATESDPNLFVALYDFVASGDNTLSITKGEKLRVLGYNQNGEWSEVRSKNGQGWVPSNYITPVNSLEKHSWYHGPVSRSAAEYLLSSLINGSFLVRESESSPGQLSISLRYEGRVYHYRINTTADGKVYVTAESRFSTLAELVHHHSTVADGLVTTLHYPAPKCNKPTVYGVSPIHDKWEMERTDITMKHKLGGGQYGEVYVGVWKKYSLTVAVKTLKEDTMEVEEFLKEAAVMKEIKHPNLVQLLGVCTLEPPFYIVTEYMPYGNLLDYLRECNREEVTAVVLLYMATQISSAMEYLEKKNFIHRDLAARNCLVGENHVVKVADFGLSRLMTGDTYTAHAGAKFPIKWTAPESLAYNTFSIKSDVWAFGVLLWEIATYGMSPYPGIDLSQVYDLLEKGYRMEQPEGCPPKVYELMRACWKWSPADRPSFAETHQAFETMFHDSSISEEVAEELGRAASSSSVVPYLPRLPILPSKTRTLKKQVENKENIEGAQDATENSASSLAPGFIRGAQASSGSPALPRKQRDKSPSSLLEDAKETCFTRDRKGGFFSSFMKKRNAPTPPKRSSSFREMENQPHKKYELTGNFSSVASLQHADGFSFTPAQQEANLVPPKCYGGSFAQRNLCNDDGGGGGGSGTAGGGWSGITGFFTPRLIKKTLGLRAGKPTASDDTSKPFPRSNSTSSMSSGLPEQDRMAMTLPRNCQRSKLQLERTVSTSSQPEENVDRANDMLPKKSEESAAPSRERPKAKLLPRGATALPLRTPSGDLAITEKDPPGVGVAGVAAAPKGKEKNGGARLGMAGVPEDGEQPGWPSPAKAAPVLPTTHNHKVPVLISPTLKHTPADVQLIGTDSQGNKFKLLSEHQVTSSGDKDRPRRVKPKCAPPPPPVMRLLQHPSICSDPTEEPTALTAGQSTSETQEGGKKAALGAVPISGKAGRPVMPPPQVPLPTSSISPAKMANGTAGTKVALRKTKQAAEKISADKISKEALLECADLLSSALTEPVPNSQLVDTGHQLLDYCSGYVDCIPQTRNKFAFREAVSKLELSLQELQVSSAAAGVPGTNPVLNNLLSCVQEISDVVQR

[4] = molecular target: Serine/threonine-protein kinase 38 (Homo sapiens) (UniProt Q15208); assay: Selectivity interaction (ActivX KiNativ screen (kinase selectivity in THP-1 cell lysates)) EUB0000639a STK38; format: subcellular; details: lysate, at 5 µM
Sequence of Serine/threonine-protein kinase 38 (Homo sapiens) (Q15208 2-465 limits assumed): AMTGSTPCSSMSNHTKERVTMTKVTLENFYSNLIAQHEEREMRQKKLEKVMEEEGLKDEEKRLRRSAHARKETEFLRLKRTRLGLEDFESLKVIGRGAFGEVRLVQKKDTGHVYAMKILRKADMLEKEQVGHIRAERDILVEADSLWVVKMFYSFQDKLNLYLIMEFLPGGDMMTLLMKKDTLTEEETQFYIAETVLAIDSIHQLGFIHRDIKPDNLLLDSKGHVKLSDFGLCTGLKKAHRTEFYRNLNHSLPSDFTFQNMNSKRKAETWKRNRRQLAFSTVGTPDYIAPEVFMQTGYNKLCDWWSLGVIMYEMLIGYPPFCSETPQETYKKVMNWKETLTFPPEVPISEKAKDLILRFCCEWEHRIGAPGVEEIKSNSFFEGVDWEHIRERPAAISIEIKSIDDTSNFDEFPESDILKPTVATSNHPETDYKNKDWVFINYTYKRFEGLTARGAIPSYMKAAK

[5] = molecular target: T2, Homeodomain-interacting protein kinase 4 (Homo sapiens) (UniProt Q8NE63); assay: Selectivity interaction (ProQinase) EUB0000171b HIPK4
T2 sequence (whole entry): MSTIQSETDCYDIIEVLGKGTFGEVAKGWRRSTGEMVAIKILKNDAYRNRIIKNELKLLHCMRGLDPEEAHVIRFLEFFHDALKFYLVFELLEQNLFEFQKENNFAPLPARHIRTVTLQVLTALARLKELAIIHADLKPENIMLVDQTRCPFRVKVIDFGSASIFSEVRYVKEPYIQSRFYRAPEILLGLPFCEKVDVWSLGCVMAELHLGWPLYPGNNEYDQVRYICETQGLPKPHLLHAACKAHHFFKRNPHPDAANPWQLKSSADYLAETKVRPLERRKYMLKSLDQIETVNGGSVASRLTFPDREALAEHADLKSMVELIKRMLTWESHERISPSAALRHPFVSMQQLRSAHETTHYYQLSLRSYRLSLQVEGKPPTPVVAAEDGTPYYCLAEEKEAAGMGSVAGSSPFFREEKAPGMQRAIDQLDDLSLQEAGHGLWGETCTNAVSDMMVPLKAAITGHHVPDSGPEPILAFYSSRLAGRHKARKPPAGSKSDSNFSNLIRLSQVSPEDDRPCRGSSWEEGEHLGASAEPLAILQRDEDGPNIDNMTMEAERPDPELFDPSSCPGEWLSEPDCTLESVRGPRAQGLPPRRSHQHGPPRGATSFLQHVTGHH

[6] = molecular target: Serine/threonine-protein kinase MRCK beta (Homo sapiens) (UniProt Q9Y5S2); assay: Selectivity interaction (KinomeScan (DiscoverX)) EUB0000045b CDC42BPB
Sequence of Serine/threonine-protein kinase MRCK beta (Homo sapiens) (Q9Y5S2 whole entry): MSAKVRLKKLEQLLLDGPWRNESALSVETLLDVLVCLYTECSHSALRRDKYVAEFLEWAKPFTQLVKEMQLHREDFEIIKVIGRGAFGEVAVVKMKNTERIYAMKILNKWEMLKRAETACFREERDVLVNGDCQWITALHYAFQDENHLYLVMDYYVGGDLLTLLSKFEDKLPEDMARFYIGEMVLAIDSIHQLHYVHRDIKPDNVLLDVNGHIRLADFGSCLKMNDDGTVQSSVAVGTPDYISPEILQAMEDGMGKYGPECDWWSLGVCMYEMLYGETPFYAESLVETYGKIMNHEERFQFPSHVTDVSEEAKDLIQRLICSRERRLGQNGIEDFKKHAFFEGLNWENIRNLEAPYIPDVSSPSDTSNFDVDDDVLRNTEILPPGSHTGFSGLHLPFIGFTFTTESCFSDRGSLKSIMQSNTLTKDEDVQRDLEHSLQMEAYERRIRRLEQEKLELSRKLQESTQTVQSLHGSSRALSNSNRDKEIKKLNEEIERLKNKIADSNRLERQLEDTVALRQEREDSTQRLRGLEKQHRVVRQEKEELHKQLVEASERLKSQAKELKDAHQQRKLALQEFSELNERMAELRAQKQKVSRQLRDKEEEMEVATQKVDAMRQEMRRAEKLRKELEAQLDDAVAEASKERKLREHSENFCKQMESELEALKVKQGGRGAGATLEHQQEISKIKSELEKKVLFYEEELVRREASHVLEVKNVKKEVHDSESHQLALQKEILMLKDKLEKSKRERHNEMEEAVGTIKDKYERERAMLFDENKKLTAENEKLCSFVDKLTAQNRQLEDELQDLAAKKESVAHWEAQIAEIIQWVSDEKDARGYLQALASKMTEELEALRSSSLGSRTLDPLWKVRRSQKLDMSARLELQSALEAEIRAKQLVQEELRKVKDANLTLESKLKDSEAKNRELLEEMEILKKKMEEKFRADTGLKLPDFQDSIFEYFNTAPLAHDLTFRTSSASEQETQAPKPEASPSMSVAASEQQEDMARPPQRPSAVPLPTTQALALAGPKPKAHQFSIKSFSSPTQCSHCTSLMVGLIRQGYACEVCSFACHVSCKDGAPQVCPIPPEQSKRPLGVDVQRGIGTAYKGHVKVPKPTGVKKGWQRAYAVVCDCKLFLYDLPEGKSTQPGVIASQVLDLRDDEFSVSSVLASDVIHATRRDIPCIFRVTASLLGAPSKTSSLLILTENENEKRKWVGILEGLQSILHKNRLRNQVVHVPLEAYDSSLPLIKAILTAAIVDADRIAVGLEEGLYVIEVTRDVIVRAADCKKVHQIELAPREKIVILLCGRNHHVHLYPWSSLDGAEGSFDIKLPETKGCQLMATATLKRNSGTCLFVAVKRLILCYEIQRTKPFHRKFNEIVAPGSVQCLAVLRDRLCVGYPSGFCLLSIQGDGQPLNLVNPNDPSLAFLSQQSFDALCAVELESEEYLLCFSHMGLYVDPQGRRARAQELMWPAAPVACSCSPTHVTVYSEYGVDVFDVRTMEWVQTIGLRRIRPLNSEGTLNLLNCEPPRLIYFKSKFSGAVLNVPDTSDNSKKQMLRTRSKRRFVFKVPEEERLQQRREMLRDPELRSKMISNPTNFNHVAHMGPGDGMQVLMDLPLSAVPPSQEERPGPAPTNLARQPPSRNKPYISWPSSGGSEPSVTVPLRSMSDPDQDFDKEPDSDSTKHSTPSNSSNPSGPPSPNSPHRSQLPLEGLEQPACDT

[7] = molecular target: Platelet-derived growth factor receptor alpha (Homo sapiens, UniProt P16234); assay: Selectivity interaction (KinomeScan (DiscoverX)) EUB0000229b PDGFRA; details: at 10 µM
[8] = molecular target: T3, Dual specificity mitogen-activated protein kinase kinase 6 (Homo sapiens) (UniProt P52564); assay: Selectivity interaction (KinomeScan (DiscoverX)) EUB0000229b MAP2K6; details: at 10 µM
T3 sequence (whole entry): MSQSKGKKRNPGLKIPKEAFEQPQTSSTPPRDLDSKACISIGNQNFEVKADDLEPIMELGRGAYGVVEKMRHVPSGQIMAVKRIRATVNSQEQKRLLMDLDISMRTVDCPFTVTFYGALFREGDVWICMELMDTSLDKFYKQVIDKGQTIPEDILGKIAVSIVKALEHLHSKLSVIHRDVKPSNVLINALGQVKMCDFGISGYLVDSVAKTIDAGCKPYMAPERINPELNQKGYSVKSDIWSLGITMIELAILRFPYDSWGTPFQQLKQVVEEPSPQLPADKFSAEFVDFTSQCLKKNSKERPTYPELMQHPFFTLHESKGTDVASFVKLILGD

[9] = molecular target: Ribosomal protein S6 kinase alpha-1 (Homo sapiens, UniProt Q15418); assay: Selectivity interaction (KinomeScan (DiscoverX)) EUB0000092b RPS6KA1; details: at 10 µM
Sequence of Ribosomal protein S6 kinase alpha-1 (Q15418 whole entry): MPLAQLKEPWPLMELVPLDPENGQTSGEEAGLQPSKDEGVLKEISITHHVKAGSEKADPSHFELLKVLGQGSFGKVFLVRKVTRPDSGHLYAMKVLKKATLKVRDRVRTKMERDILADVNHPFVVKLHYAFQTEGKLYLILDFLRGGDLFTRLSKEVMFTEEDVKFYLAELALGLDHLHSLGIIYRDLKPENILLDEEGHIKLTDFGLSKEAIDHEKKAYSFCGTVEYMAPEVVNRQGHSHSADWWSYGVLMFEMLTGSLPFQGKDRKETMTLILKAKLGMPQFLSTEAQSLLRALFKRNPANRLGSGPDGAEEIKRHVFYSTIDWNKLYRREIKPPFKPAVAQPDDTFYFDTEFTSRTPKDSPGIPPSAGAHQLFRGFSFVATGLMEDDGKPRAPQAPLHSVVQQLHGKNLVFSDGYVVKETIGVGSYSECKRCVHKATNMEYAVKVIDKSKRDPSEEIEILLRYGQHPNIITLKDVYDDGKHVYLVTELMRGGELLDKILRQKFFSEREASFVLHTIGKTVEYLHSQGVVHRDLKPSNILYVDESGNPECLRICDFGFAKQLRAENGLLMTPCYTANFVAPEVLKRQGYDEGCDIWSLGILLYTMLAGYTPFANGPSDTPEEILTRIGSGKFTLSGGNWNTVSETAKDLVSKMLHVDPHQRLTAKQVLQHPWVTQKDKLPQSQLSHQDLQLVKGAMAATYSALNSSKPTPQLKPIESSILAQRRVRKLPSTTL

[10] = molecular target: T4, Ephrin type-A receptor 1 (Homo sapiens) (UniProt P21709); assay: Selectivity interaction (ActivX KiNativ screen (ex vivo kinase selectivity in human PBMCs)) EUB0001619a EPHA1; format: cell-based; details: PBMC, at 1 µM
T4 sequence (whole entry): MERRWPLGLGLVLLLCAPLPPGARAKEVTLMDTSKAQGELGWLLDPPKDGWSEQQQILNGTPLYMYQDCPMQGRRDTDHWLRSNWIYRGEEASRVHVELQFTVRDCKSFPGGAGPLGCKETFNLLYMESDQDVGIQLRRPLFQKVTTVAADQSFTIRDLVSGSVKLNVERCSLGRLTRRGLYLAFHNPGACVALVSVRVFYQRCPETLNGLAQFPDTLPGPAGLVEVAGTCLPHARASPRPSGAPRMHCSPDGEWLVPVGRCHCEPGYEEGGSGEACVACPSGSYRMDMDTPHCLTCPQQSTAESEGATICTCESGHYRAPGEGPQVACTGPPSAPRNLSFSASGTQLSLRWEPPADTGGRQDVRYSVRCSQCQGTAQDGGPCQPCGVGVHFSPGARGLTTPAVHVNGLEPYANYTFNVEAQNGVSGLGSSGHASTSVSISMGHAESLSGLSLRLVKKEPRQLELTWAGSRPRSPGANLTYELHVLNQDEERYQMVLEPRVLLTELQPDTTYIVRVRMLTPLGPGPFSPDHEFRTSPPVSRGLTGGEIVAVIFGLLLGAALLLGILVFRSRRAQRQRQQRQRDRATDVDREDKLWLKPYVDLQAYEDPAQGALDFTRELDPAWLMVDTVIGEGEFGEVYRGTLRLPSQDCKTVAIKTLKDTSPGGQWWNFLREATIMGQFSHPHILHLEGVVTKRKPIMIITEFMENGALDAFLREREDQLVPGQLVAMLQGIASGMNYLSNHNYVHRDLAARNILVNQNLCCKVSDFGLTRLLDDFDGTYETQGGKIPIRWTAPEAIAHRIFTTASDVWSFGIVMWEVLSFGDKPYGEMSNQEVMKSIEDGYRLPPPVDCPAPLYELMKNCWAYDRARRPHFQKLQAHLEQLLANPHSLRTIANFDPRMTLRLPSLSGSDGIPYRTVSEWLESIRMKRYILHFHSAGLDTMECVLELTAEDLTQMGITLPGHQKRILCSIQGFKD

[11] = molecular target: T1, Tyrosine-protein kinase SYK; assay: Selectivity interaction (ActivX KiNativ screen (ex vivo kinase selectivity in human PBMCs)) EUB0001619a SYK; format: cell-based; details: PBMC, at 1 µM

SMILES: CNC(=O)Nc1ccc(-c2nc(N3CC4CCC(C3)O4)c3cnn(C4CCC5(CC4)OCCO5)c3n2)cc1
% of control [1]: 100%

% of inhibition [2]: 10%
% of inhibition [3]: -16.4%
% of inhibition [4]: 87.9%
SMILES: CC[C@@H]1[C@H](F)C(=O)N[C@@H]1COc1nccc2cc(C(N)=O)c(OC)cc12 [ZIMLOVISERTIB]

% of control ([5]; at 1 µM): 76%
% of control ([5]; at 5 µM): 37%
SMILES: C=CC(=O)Nc1cccc(C(=O)Nc2ccc(Nc3cc(-c4[nH]c(SC)nc4C)ccn3)cc2)c1

SMILES: C=CC(=O)Nc1cc(-n2c(=O)ccc3cnc4ccc(-c5ccc(NS(C)(=O)=O)cc5)cc4c32)ccc1C
% of control ([6]; at 1 µM): 100%
% of control ([6]; at 10 µM): 100%

SMILES: COc1cc(N(C)c2ccnc3ccc(C(F)(F)F)cc23)cc(OC)c1OC
% binding [7]: 98%
% binding [8]: 75%

SMILES: CCC(=O)N1CCN(c2ccc(-n3c(=O)ccc4cnc5ccc(-c6cnc7ccccc7c6)cc5c43)cc2C(F)(F)F)CC1
% of control [9]: 100%

SMILES: N#Cc1cccc(-c2c[nH]c3ncnc(N4CCOCC4)c23)c1
% of inhibition [10]: -3%
% of inhibition [11]: 1%
